These results are taken from paper PMC9457798, “In Vivo Anticancer Evaluation of 6b, a Non-Covalent Imidazo[1,2-a]quinoxaline-Based Epidermal Growth Factor Receptor Inhibitor against Human Xenograft Tumor in Nude Mice” (Molecules, 2022).

The structures appear in SMILES notation.

The test system of data set [1] is EGFR. The arrangement: method as in PMID 25342981, PMID 27121209. The conditions noted are these: earlier report of the authors; read-out: IC50 (EGFR inhibition); cited from earlier work.
The subject of data set [2] is H1975 lung cancer cells with mutant EGFR (L858R/T790M). The conditions noted are these: gefitinib-resistant H1975, EGFR L858R/T790M; earlier report of the authors; read-out: IC50 (anti-proliferative, H1975 cells); cited from earlier work.
Data set [3] in a line: In vitro microsomal stability, mouse liver microsomes. In general terms: Liver microsomes are a subcellular fraction often used to study metabolism.
Experimental: (§1) Compounds were incubated at a final concentration of 1 µM with human (HLM) and mouse (MLM) at 0.5 mg/mL and NADPH (1 mM) in 100 mM phosphate buffer (pH 7.4) at 37 °C. The reactions were terminated at 0 and 30 min by the addition of cold acetonitrile containing propranolol (50 ng/mL) as an internal standard.
For data set [4], the system named is A549 xenograft tumor. The data set is described as follows: A549-cell-induced lung cancer xenograft model in nude mice. The settings on record: for % tumor growth inhibition: intraperitoneally once a week, 21 days; for Average tumor weight: compared with the other groups; for Cytotoxic effect on the tumor (H&E staining): excised tumors.
Experimental: The animal experiments were performed as per the guidelines of the Committee for the Purpose of Control and Supervision of Experiments on Animals (CPCSEA) with the approval of the Institutional Animal Ethics Committee (# IAEC/19/14). Four–five-week-old male athymic nude mice were procured from Vivo Bio Tech Ltd., Hyderabad, India. Animals were kept in an individually ventilated caging (IVC) system in a pathogen-free environment with standard conditions of temperature: 22 ± 1 °C, humidity: 50 ± 10%, and a 12 h light/dark cycle maintained in the National Toxicology Center (NTC) in the National Institute of Pharmaceutical Education and Research (NIPER), Mohali. Throughout the study, animals were fed with a standard rodent chow diet and water ad libitum.
Xenograft, the nude mice model, was developed by injecting A549 (1 × 10 ^6 cells, suspended in Matrigel™) subcutaneously into the right flank of each mouse. Tumor-bearing mice were randomly divided into four groups with seven animals per group after attaining an anticipated tumor volume of >80 mm^3. […] Treatment was given intraperitoneally once a week for a period of 21 days. Tumor volume and body weight were measured weekly during the study. Vernier caliper was used to measure the size of A549-cell-induced tumors weekly, starting from two weeks after inoculation.
Tumors were surgically removed from animals, sliced, and fixed in 10% v/v formal saline. For the histological study, the sliced tumors were processed and embedded in paraffin; sections of 5 µm were mounted on poly-L-lysine-coated glass slides. Sections were then stained with hematoxylin & eosin (H&E) to observe the structural alterations as described.
A short description of data set [5]: In vitro microsomal stability, human liver microsomes. The class given is in vitro ADME. The settings on record: for microsomal CLint at 1 µM / half-life at 1 µM / remaining at 0.5 h, 1 µM: human, liver microsomes, 0.5 mg/mL microsomes; for microsomal CLint at 1 µM / half-life at 1 µM: pH 7.4, NADPH; for microsomal CLint at 1 µM: read-out: CLint HLM; for half-life at 1 µM: read-out: t½ HLM; for remaining at 0.5 h, 1 µM: NADPH 1 mM, pH 7.4, 37 °C, read-out: % Remaining after 30 min HLM.
Experimental: as §1

For data set [6], the system named is Twist, Zeb1, and Hif-1α gene expression. The data set is described as follows: qPCR analysis of Twist, Zeb1 and Hif-1α in tumor tissue from treated mice. It is filed as in vivo, nude mice. The conditions noted are these: vs untreated mice. For orientation: In qPCR the cycle at which signal appears reflects the starting amount.
The subject of data set [7] is PI3K/AKT pathway (AKT, P-AKT, PI3K, PTEN). The data set is described as follows: Western blot (immunoblotting) of tumor tissue from A549 xenograft mice. It is filed as in vivo, nude mice. The conditions noted are these: for PTEN protein level in tumors: gefitinib 30 mg/kg, 6b both doses, vs control untreated mice. How it is done:
Tissue that had been kept at −80 °C was removed and placed on ice for 5 min. A total of 20 mg of tissue was diced and placed in a 1.5 mL microcentrifuge tube kept on ice. The tissue was lysed to extract the proteins using RIPA lysis buffer with a cocktail (IX) of phosphatase and protease inhibitors, followed by sonication for 30 min. After that, the mixture was centrifuged, and the supernatant was collected for protein estimation using the Bradford assay. Thereafter, immunoblotting was performed using SDS-PAGE for the separation and resolving of individual proteins by their molecular weights. The proteins were further transferred to nitrocellulose membranes, and blocking was performed in 3% powdered milk solution. Further, the membrane was washed using TBST buffer and was incubated in primary antibody (CST) for 3 h. After incubation, the membrane was washed in TBST and re-incubated for 1h in secondary antibody. The immune complex was detected using ChemiDoc^TM (BioRad) after washing the membrane with TBST [46].

Data set [8] is described as follows: in vitro. The settings on record: mouse, microsomes, pH 7.4.
Experimental: as §1
[9] abbreviates: mouse, liver microsomes, pH 7.4.

In general, IC50 refers to the concentration that gives 50% inhibition. For orientation: amount remaining means what is left of the initial amount, in per cent. As for `COc1cc(C=Nc2c(C#N)nc3c(-c4cc(OC)c(OC)c(OC)c4)nc4ccccc4n23)cc(OC)c1OC` [6b, 1-((3,4,5-Trimethoxybenzylidene)amino)-4-(3,4,5-trimethoxyphenyl)imidazo[1,2-a]quinoxaline-2-carbonitrile], in data set [1], the IC50 is 0.211 µM. The IC50 in data set [2] was 3.65 µM. Moreover, the “Stability in mouse liver microsomes (in words)” value in data set [3] is on record as “good stability”. In data set [3] (setting [9]), this compound registered a half-life at 1 µM of 0.602 h; a microsomal CLint at 1 µM of 38 µL/min/mg; an amount remaining at 0.5 h, 1 µM of 56.2%. In data set [4] (10 mg/kg (LD)), the “% tumor growth inhibition” value came out at 16%. In addition, in data set [4] (30 mg/kg, i.p.), the “Kaplan–Meier survival” value is given as “improved the survival of the mice” and the Average tumor weight entry was “lower”. In addition, in data set [4] (30 mg/kg, i.p., vs tumor control), the “Effect on tumor volume / size” value is reported as “significantly decreased the size of the tumors”. For the same compound, the “% tumor growth inhibition” value in data set [4] (30 mg/kg) was determined as 33%. For the same compound, the “Cytotoxic effect on the tumor (H&E staining)” value in data set [4] is recorded as “marked cytotoxic damage”. Further, in data set [5], the “Stability in human liver microsomes (in words)” value is listed as “good stability”; the microsomal CLint at 1 µM stood at 80 µL/min/mg; the half-life at 1 µM was determined as 0.287 h; the amount remaining at 0.5 h, 1 µM came out at 29.9%. Moreover, in data set [6], the “Expression of EMT-regulating genes Twist and Zeb1 in tumors” value is “decreased”; the “Expression of the Hif-1α gene in tumors” value was “decreased”. In addition, the “AKT, P-AKT and PI3K protein level in tumor masses” value in data set [7] (LD (10 mg/kg) and HD (30 mg/kg), vs untreated mice) is listed as “decreased”. Further, in data set [7], the “PTEN protein level in tumors” value is on record as “increased”.

In data set [8], `NC(=O)N1c2ccccc2C=Cc2ccccc21` [Carbamazepine, reference compound] gave a half-life at 1 µM of 2.17 h; a microsomal CLint at 1 µM of 11 µL/min/mg; a share remaining at 0.5 h, 1 µM of 85.2%. Besides, in data set [5], the microsomal CLint at 1 µM turned out to be 3 µL/min/mg; the half-life at 1 µM was 7.97 h; the amount remaining at 0.5 h, 1 µM is 95.7%.

Take `COc1cc2ncnc(Nc3ccc(F)c(Cl)c3)c2cc1OCCCN1CCOCC1` [gefitinib, reference compound]: in data set [4] (30 mg/kg, i.p.), the “Kaplan–Meier survival” value was “improved the survival of the mice” and the Average tumor weight entry is “lower”. Also, the “Cytotoxic effect on the tumor (H&E staining)” value in data set [4] was “marked cytotoxic damage”. Also, in data set [4] (mouse, in vivo), the “Effect on tumor volume / size” value is on record as “suppression of tumor volume to some extent”. Moreover, the “Expression of the Hif-1α gene in tumors” value in data set [6] is “decreased”. Besides, the “PTEN protein level in tumors” value in data set [7] is “increased”.
